ChEMBL document CHEMBL5465560, “Selectivity Literature for EUbOPEN Chemogenomic Library” (2024)
Blank lines part the entries; values can stand above or below the compound they belong to.

How the values were obtained:
[1] = molecular target: Mitogen-activated protein kinase kinase kinase kinase 4 (Homo sapiens, UniProt O95819); details: at 10 µM
[2] = molecular target: Cyclin-dependent kinase 17 (Homo sapiens) (UniProt Q00537); details: at 10 µM
[3] = molecular target: RAC-alpha serine/threonine-protein kinase (Homo sapiens, UniProt P31749); experiment: Selectivity interaction (Millipore kinase profiler) EUB0000124b AKT1; details: at 10 µM
[4] = molecular target: BMP-2-inducible protein kinase (Homo sapiens) (UniProt Q9NSY1); experiment: Selectivity interaction (Kinase panel (DSF assay)) EUB0001489b BMP2K
[5] = molecular target: Serine/threonine-protein kinase SIK1 (Homo sapiens) (UniProt P57059); experiment: Selectivity interaction (LanthaScreen Eu Kinase Binding Assay) EUB0001632a SIK1; details: at 10 µM
[6] = molecular target: T1, Serine/threonine-protein kinase Nek1 (Homo sapiens) (UniProt Q96PY6); experiment: Selectivity interaction (KinomeScan (DiscoverX)) EUB0001079a NEK1; details: at 1 µM
T1 sequence (whole entry): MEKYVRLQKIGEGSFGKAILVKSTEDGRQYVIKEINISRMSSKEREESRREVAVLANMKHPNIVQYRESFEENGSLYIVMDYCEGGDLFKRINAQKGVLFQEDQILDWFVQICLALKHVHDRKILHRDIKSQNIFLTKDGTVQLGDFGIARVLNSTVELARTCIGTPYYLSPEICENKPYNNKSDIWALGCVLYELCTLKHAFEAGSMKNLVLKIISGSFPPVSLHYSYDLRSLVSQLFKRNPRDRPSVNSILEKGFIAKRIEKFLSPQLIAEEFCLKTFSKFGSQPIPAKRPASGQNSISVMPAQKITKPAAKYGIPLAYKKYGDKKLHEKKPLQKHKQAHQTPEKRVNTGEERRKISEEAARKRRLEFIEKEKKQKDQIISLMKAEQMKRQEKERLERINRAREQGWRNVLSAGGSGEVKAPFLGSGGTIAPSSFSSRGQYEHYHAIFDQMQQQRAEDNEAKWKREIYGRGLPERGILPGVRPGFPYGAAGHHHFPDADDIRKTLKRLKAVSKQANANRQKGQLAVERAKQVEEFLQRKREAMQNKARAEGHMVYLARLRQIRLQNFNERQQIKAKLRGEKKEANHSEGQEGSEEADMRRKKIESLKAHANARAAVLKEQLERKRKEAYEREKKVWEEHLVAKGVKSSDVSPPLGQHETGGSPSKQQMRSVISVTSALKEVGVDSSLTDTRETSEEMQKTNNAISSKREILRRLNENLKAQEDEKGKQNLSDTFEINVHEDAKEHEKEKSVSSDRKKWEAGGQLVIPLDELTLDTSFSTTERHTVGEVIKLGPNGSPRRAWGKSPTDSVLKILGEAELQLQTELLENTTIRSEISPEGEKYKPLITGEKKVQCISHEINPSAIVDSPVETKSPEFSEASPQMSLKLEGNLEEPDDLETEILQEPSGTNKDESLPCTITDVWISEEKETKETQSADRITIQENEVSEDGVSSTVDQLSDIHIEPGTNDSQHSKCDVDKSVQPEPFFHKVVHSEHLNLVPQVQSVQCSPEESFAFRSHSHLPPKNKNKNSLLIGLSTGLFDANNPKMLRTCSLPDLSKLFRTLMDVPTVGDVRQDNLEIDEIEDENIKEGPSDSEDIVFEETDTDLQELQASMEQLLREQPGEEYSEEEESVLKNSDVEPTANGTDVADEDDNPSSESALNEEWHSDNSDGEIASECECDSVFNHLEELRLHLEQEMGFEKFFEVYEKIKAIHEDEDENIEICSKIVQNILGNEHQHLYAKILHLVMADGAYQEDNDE

[7] = molecular target: TGF-beta receptor type-2 (Homo sapiens) (UniProt P37173); experiment: Selectivity interaction (KinomeScan (DiscoverX)) EUB0000045b TGFBR2
[8] = molecular target: Serine/threonine-protein kinase PLK2 (Homo sapiens, UniProt Q9NYY3); experiment: Selectivity interaction (KinomeScan (DiscoverX)) EUB0000045b PLK2
[9] = molecular target: Delta-type opioid receptor (Homo sapiens, UniProt P41143); experiment: Selectivity interaction (GPCR panel (PDSP screen)) EUB0000311b OPRD1; details: at 10 µM
[10] = molecular target: T2, Serine/threonine-protein kinase Nek5 (Homo sapiens) (UniProt Q6P3R8); experiment: Selectivity interaction (KinomeScan (DiscoverX)) EUB0001619a NEK5; details: at 1 µM
T2 sequence (whole entry): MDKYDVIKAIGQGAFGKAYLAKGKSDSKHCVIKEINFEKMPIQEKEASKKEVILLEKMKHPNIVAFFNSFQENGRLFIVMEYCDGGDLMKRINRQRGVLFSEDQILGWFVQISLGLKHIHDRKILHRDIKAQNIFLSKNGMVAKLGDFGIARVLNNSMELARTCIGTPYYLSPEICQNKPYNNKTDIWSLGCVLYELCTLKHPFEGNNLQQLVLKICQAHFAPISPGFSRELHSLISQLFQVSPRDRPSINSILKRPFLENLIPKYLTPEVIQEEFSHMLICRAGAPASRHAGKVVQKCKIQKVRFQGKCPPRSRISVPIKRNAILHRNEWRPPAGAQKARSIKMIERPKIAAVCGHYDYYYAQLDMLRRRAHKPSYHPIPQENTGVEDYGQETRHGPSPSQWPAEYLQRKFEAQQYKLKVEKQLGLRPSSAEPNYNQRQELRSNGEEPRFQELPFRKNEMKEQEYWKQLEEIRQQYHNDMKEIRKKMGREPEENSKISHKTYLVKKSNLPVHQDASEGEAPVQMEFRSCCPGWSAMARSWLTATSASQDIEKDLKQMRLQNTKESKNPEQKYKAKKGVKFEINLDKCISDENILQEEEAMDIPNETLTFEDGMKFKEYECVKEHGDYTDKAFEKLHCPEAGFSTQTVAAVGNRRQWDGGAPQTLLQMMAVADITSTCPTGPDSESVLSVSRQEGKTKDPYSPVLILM

[11] = molecular target: Wee1-like protein kinase (Homo sapiens) (UniProt P30291); experiment: Selectivity interaction (KinomeScan (DiscoverX)) EUB0000607a WEE1; details: at 10 µM
Sequence of Wee1-like protein kinase (Homo sapiens) (P30291 whole entry, looked up): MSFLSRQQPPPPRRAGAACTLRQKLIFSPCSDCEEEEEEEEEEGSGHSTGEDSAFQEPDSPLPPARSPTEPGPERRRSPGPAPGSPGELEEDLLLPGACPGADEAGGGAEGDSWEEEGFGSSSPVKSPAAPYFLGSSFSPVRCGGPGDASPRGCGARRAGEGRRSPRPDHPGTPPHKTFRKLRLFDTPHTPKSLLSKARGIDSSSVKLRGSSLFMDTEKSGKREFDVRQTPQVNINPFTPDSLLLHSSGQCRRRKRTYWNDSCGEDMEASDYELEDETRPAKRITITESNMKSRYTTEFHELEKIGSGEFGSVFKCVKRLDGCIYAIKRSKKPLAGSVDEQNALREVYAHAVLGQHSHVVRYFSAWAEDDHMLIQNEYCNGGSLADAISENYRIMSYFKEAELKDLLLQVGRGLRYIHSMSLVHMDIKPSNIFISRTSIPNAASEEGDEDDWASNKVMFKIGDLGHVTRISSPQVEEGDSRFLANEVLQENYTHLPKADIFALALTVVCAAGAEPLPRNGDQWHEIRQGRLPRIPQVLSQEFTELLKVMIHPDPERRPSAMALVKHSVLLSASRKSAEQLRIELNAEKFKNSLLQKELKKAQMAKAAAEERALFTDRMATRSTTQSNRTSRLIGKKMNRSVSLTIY

Sequence of TGF-beta receptor type-2 (Homo sapiens) (P37173 whole entry): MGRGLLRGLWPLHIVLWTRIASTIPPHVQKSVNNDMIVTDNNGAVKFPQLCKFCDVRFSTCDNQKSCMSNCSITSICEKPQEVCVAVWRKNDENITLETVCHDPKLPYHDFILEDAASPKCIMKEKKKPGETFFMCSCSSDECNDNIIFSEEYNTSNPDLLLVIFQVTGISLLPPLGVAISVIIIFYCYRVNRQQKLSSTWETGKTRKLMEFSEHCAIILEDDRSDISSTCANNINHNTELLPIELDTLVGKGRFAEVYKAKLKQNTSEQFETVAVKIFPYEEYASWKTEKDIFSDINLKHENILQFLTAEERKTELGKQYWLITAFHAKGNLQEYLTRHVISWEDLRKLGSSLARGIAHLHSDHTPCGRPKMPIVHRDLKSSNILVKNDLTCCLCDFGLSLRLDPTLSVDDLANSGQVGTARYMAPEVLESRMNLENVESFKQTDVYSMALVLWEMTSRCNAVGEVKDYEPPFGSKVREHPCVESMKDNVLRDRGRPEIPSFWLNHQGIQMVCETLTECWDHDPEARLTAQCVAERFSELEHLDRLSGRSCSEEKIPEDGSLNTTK
Sequence of Serine/threonine-protein kinase PLK2 (Q9NYY3 whole entry, looked up): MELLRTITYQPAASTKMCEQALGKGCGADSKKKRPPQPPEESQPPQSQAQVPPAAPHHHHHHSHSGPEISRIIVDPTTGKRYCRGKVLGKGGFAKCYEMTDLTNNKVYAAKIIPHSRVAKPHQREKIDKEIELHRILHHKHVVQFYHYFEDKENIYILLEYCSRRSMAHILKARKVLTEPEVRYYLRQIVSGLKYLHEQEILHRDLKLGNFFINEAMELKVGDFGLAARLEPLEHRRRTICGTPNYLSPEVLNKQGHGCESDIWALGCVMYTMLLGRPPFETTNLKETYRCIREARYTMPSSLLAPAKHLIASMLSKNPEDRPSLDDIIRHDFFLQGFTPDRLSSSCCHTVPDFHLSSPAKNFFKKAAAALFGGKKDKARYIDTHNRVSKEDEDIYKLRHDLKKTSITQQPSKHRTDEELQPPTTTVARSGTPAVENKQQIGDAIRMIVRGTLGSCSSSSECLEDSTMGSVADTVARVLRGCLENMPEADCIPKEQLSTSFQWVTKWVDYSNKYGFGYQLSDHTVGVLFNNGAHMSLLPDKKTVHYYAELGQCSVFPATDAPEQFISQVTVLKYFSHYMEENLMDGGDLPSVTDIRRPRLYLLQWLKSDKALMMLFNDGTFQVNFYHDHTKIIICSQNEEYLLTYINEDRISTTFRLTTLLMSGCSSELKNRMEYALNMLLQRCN
Sequence of Serine/threonine-protein kinase SIK1 (Homo sapiens) (P57059 whole entry): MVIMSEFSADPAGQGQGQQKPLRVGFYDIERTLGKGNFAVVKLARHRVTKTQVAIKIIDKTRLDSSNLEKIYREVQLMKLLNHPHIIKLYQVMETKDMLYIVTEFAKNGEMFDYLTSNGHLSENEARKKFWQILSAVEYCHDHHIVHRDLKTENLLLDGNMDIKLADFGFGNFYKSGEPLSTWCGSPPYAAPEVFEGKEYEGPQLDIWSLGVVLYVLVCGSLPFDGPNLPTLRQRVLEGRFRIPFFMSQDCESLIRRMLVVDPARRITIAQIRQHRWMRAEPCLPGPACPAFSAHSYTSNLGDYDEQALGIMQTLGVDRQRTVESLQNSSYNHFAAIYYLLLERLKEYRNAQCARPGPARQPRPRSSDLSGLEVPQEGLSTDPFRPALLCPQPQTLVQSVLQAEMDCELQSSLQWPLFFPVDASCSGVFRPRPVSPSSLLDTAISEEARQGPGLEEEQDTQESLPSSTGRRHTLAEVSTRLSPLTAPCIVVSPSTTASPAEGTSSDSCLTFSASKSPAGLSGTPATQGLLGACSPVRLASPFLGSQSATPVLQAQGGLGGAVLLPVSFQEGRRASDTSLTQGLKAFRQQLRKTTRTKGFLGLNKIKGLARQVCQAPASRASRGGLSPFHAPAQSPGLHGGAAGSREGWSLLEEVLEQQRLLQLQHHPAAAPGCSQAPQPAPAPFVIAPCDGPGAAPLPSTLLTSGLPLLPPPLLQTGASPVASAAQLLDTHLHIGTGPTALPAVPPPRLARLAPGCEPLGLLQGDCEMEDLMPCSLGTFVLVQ
Sequence of Mitogen-activated protein kinase kinase kinase kinase 4 (O95819 2-1239 limits assumed): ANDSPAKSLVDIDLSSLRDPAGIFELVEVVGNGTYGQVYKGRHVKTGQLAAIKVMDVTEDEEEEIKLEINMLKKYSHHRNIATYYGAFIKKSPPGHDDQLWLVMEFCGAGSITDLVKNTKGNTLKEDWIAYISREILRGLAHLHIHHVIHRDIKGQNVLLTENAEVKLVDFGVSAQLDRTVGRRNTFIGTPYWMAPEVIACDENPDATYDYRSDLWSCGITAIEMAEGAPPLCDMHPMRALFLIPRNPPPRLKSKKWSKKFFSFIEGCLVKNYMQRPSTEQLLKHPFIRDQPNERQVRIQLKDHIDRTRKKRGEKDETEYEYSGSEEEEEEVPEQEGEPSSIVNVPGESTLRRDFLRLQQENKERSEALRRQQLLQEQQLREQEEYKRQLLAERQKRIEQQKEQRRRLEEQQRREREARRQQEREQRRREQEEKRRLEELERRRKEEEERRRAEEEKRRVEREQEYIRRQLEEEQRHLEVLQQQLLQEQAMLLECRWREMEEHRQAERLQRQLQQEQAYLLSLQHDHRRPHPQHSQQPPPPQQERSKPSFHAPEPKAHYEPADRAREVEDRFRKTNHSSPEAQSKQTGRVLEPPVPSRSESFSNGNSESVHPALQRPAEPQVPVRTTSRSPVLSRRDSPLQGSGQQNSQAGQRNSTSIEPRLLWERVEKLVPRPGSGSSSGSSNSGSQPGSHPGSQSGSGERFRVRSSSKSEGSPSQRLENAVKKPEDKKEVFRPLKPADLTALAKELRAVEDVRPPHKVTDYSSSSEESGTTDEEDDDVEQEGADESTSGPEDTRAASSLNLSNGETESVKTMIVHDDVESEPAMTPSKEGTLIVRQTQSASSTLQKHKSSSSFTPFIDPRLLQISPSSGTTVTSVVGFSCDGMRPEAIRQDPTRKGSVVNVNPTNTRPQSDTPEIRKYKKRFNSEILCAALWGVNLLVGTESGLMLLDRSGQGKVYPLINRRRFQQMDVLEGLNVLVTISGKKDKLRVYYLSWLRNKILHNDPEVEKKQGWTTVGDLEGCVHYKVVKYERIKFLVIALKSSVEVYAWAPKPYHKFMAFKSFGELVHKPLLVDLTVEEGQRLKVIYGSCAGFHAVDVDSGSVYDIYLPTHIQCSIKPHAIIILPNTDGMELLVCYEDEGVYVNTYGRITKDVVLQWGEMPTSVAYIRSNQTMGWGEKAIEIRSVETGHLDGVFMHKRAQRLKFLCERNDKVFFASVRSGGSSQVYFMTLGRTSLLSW
Sequence of RAC-alpha serine/threonine-protein kinase (P31749 whole entry): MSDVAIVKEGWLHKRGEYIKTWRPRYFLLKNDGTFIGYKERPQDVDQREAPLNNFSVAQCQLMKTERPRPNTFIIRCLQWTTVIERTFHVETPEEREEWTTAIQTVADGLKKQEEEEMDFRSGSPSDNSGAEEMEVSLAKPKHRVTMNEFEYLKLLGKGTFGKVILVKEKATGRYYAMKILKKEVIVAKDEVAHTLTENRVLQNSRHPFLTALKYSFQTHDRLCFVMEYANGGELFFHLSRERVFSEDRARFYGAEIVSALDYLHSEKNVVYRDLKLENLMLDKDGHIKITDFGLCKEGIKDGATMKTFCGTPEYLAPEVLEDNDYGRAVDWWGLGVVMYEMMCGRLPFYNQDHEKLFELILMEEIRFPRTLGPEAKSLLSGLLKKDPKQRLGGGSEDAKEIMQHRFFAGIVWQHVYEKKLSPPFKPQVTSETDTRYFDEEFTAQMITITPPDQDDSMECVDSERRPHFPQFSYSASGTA
Sequence of Delta-type opioid receptor (P41143 whole entry): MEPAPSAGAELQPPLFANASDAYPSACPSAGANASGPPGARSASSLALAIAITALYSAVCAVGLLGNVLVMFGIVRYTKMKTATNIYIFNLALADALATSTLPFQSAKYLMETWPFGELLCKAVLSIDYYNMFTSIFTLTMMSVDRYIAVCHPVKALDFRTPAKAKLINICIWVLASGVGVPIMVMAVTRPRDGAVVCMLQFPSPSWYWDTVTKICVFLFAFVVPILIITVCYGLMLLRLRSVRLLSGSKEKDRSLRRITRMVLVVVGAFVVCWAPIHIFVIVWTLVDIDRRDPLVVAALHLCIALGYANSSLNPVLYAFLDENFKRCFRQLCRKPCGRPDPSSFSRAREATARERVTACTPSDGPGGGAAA

Structure (SMILES): Cc1cc([C@@H](C)Nc2ccccc2C(=O)O)c2nc(N3CCOCC3)cc(=O)n2c1 [AZD-6482]
% of control [1]: 97%
% of control [2]: 100%

% of control [3]: 107%
Structure (SMILES): CC(=O)Nc1cccc(-n2c(=O)n(C3CC3)c(=O)c3c(Nc4ccc(I)cc4F)n(C)c(=O)c(C)c32)c1

dTM [4]: 6.8 K
Structure (SMILES): CN1CCN(C(=O)c2ccc3cc2OCCOCCNc2ccn4ncc-3c4n2)CC1

% of inhibition [5]: -0.976%
Structure (SMILES): Cn1cc(-n2cnc3c(NCc4nc5cc(Cl)c(Cl)cc5[nH]4)nc(N4CCOCC4)nc32)cn1

Structure (SMILES): Nc1cnc(N2CCc3cc(S(=O)(=O)Nc4c(F)cc(Cl)cc4F)cc(N4CCCC4=O)c32)nc1 [TP-020n]
% of control [6]: 46%

Structure (SMILES): C=CC(=O)Nc1cc(-n2c(=O)ccc3cnc4ccc(-c5ccc(NS(C)(=O)=O)cc5)cc4c32)ccc1C
% of control ([7]; at 1 µM): 100%
% of control ([7]; at 10 µM): 100%
% of control ([8]; at 1 µM): 72%
% of control ([8]; at 10 µM): 86%

% of inhibition [9]: 20.5%
Structure (SMILES): CCc1ccccc1C(=O)Nc1n[nH]c2c(C)c(F)c(C3C(C#N)=C(C)N(C)C(C)=C3C#N)cc12 [BAY-3827]

Structure (SMILES): N#Cc1cccc(-c2c[nH]c3ncnc(N4CCOCC4)c23)c1
% of control [10]: 100%

Structure (SMILES): CNC(=O)Nc1ccc(-c2nc(N3CC4CCC(C3)O4)c3cnn(C4CCC5(CC4)OCCO5)c3n2)cc1
% of control [11]: 79%
